Results from patent publication US20170291905A1, “ARGININE […] INHIBITORS AND USES THEREOF” (Epizyme, Inc., priority 2014, published 2017).
Counter-ions that a name gives are not always drawn.

Target: full-length human PRMT6 (Flag- and His-tagged) (Homo sapiens, UniProt Q96LA8)
Assay: PRMT6 biochemical assay (3H-SAM Flashplate, histone H4 36-50 K44me1 peptide)
Conditions: 1 nM PRMT6, 30 min preincubation, 75 nM peptide
Text: S-adenosylmethionine (SAM), S-adenosylhomocysteine (SAH), bicine, Tween20, dimethylsulfoxide (DMSO), bovine skin gelatin (BSG), sodium butyrate and Tris(2-carboxyethyl)phosphine hydrochloride solution (TCEP) were purchased from Sigma-Aldrich at the highest level of purity possible. ^3H-SAM was purchase from American Radiolabeled Chemicals with a specific activity of 80 Ci/mmol. 384-well streptavidin Flashplates were purchased from PerkinElmer.
Peptide representative of human histone H4 residues 36-50 was synthesized with an N-terminal linker-affinity tag motif and a C-terminal amide cap by 21st Century Biochemicals. The peptide was purified by high-performance liquid chromatography (HPLC) to greater than 95% purity and confirmed by liquid chromatography mass spectrometry (LC-MS). The sequence was Biot-Ahx-[…]-amide and contained a monomethylated lysine at position 44 (SEQ ID NO.:5).
Full-length human PRMT6 (NM_018137.2) transcript clone was amplified from an HEK 293 cDNA library, incorporating a flanking 5′ sequence encoding a FLAG tag ([…]) (SEQ ID NO.:6) fused directly to Ser 2 of PRMT6 and a 3′ sequence encoding a hexa His sequence (HHHHHH) (SEQ ID NO.: 17) fused directly to Asp 375. The amplified gene was subcloned into pFastBacMam (Viva Biotech).
Recombinant baculovirus were generated according to Bac-to-Bac kit instructions (Life Technologies). […] Infections were carried out at 37° C. for 48 hours, harvested by centrifugation, and stored at −80° C. for purification.
Column was washed with 20 mM imidazole in the same buffer and Flag-PRMT6-His was eluted with 150 mM imidazole. Pooled fractions were dialysed against buffer Ni-A and further purified by anti-flag M2 affinity chromatography. Flag-PRMT6-His was eluted with 200 ug/ml FLAG peptide in the same buffer. Pooled fractions were dialysed in 20 mM Tris, 150 mM NaCl, 10% glycerol and 5 mM β-mercaptoethanol, pH 7.8. The purity of recovered protein was 95%.
General Procedure for PRMT6 Enzyme Assays on Peptide Substrates.
The assays were all performed in a buffer consisting of 20 mM Bicine (pH=7.6), 1 mM TCEP, 0.005% BSG, and 0.002% Tween 20, prepared on the day of use. Compounds in 100% DMSO (1 ul) were spotted into a polypropylene 384-well V-bottom plates (Greiner) using a Platemate Plus outfitted with a 384-channel head (Thermo Scientific). DMSO (1 ul) was added to Columns 11, 12, 23, 24, rows A-H for the maximum signal control and 1 ul of SAH, a known product and inhibitor of PRMT6, was added to columns 11, 12, 23, 24, rows I-P for the minimum signal control. A cocktail (40 ul) containing the PRMT6 enzyme was added by Multidrop Combi (Thermo-Fisher). The compounds were allowed to incubate with PRMT6 for 30 min at room temperature, then a cocktail (10 ul) containing SAM and peptide was added to initiate the reaction (final volume=51 ul). The final concentrations of the components were as follows: PRMT6 was 1 nM, ^3H-SAM was 200 nM, non-radiolabeled SAM was 250 nM, peptide was 75 nM, SAH in the minimum signal control wells was 1 mM, and the DMSO concentration was 2%. The assays were stopped by the addition of non-radiolabeled SAM (10 ul) to a final concentration of 400 uM, which dilutes the ^3H-SAM to a level where its incorporation into the peptide substrate is no longer detectable. 50 ul of the reaction in the 384-well polypropylene plate was then transferred to a 384-well Flashplate and the biotinylated peptides were allowed to bind to the streptavidin surface for at least 1 hour before being washed once with 0.1% Tween20 in a Biotek ELx405 plate washer. The plates were then read in a PerkinElmer TopCount plate reader to measure the quantity of ^3H-labeled peptide bound to the Flashplate surface, measured as disintegrations per minute (dpm) or alternatively, referred to as counts per minute (cpm).
Where dpm=disintegrations per minute, cmpd=signal in assay well, and min and max are the respective minimum and maximum signal controls. […]

Sequence of full-length human PRMT6 (Flag- and His-tagged) (Q96LA8 with tags, fused parts or gaps): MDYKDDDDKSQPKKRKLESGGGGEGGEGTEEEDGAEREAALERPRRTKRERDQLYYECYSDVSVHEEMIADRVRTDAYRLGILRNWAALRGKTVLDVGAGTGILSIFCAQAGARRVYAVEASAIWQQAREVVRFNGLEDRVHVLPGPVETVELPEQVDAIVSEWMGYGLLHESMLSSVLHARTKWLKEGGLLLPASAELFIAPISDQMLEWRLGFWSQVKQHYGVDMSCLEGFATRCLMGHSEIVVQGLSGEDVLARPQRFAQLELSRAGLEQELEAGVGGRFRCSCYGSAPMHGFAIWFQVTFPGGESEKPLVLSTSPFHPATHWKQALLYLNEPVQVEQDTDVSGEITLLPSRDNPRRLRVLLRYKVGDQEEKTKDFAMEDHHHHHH

SMILES	IC50 [nM]
CNCCN(C)Cc1c[nH]nc1C1CCC(C)(C)[C@H](COCCOC)C1 (stereo partly drawn) [compound 35, {2-[({3-[(3R)-3-[(2-methoxyethoxy)methyl]-4,4-dimethylcyclohexyl]-1H-pyrazol-4-yl}methyl)(methyl)amino]ethyl}(methyl)amine]	124
CCCOCC1(COCCC)CCC(c2n[nH]cc2CN(C)CCNC)CC1 [compound 36, N^1-((3-(4,4-bis(propoxymethyl)cyclohexyl)-1H-pyrazol-4-yl)methyl)-N^1,N^2-dimethylethane-1,2-diamine]	14.9
CC[C@]12CC[C@](CC)(C[C@H](c3n[nH]cc3CN(C)CCNC)C1)O2 [compound 37, N1-((3-((1R,3r,5S)-1,5-diethyl-8-oxabicyclo[3.2.1]octan-3-yl)-1H-pyrazol-4-yl)methyl)-N1,N2-dimethylethane-1,2-diamine]	128
CC[C@]12CC[C@](CC)(C[C@@H](c3n[nH]cc3CN(C)CCNC)C1)O2 [compound 38, N1-((3-((1R,3s,5S)-1,5-diethyl-8-oxabicyclo[3.2.1]octan-3-yl)-1H-pyrazol-4-yl)methyl)-N1,N2-dimethylethane-1,2-diamine]	132
CNCCN(C)Cc1ccnn1[C@H]1CC[C@]2(CC1)CC(C)(C)CO2 [compound 50, N1-((1-((5r,8r)-3,3-dimethyl-1-oxaspiro[4.5]decan-8-yl)-1H-pyrazol-5-yl)methyl)-N1,N2-dimethylethane-1,2-diamine]	502
Cc1[nH]nc([C@H]2CC[C@@]3(CC2)CC(C)(C)CO3)c1CN(C)CCN [compound 51, N1-((3-((5s,8s)-3,3-dimethyl-1-oxaspiro[4.5]decan-8-yl)-5-methyl-1H-pyrazol-4-yl)methyl)-N1-methylethane-1,2-diamine]	155
Cc1[nH]nc([C@H]2CC[C@]3(CC2)CC(C)(C)CO3)c1CN(C)CCN [compound 52, N1-((3-((5r,8r)-3,3-dimethyl-1-oxaspiro[4.5]decan-8-yl)-5-methyl-1H-pyrazol-4-yl)methyl)-N1-methylethane-1,2-diamine]	202
Cc1[nH]nc(C2CCC3(CC2)CC(C)(C)CO3)c1CN(C)CCN (stereo not drawn) [compound 59]	131
CCOCC1(COCC)CC=C(c2n[nH]cc2CN(C)CCNC)CC1 [compound 60]	41.1
CNCCN(C)Cc1cnnn1[C@H]1CC[C@@]2(CC1)CC(C)(C)CO2 [compound 65]	> 10000
CNCCN(C)Cc1nncn1[C@H]1CC[C@@]2(CC1)CC(C)(C)CO2 [compound 68]	> 10000
CNCCN(C)Cc1nccn1[C@H]1CC[C@@]2(CC1)CC(C)(C)CO2 [compound 69]	8040
CNCCN(C)Cc1nnc(C)n1[C@H]1CC[C@@]2(CC1)CC(C)(C)CO2 [compound 71]	> 10000
CNCCN(C)Cc1cncn1[C@H]1CC[C@@]2(CC1)CC(C)(C)CO2 [compound 76]	181
CN(CCN)Cc1nn(C)cc1[C@H]1CC[C@@]2(CC1)CC(C)(C)CO2 [compound 80]	345
CNCCN(C)Cc1nncn1[C@H]1CC[C@]2(CC1)CC(C)(C)CO2 [compound 90]	> 10000
CNCCN(C)Cc1nccn1[C@H]1CC[C@]2(CC1)CC(C)(C)CO2 [compound 91]	> 10000

SMILES	IC50 [nM]
CNCCN(C)Cc1nnc(C)n1[C@H]1CC[C@]2(CC1)CC(C)(C)CO2 [compound 93]	> 10000
CNCCN(C)Cc1c(Cl)ncn1[C@H]1CC[C@]2(CC1)CC(C)(C)CO2 [compound 97]	3510
CNCCN(C)Cc1cncn1[C@H]1CC[C@]2(CC1)CC(C)(C)CO2 [compound 98]	2790
CN(CCN)Cc1nn(C)cc1[C@H]1CC[C@]2(CC1)CC(C)(C)CO2 [compound 102]	1140
CN(CCN)Cc1c[nH]nc1[C@H]1CC[C@@]2(CC1)CC(C)(C)CO2 [compound 105]	18.5
CN(CCN)Cc1c[nH]nc1[C@H]1CC[C@]2(CC1)CC(C)(C)CO2 [compound 106]	12.8
CNCCN(C)Cc1c(C)noc1[C@H]1CC[C@@]2(CC1)CC(C)(C)CO2 [compound 113]	1150
CNCCN(C)Cc1n[nH]cc1[C@H]1CC[C@@]2(CC1)CC(C)(C)CO2 [compound 115]	41.6
CNCCN(C)Cc1n[nH]cc1[C@H]1CC[C@]2(CC1)CC(C)(C)CO2 [compound 116]	134
CCOCC1(COCC)CCC(c2n[nH]cc2CN(C)CCN(C)C)CC1 [compound 121]	79.3
CCOCC1(COCC)CCC(c2nn(C)cc2CN(C)CCNC)CC1 [compound 122]	42.7
CCOCC1(COCC)CCC(c2n[nH]cc2CN(C)CCN)CC1 [compound 123]	16.7
CCOCC1(COCC)CCC(c2nn(C)cc2CN(C)CCN)CC1 [compound 124]	58.1
CNCCN(C)Cc1c[nH]nc1C1CCC2(CC1)CC(C)(C)OC2=O (stereo not drawn) [compound 125]	17.4
CNCCN(C)Cc1c[nH]nc1[C@H]1CC[C@@]2(CC1)COC(C)(C)C2 [compound 126, N1-((3-((5r,8r)-3,3-dimethyl-2-oxaspiro[4.5]decan-8-yl)-1H-pyrazol-4-yl)methyl)-N1,N2-dimethylethane-1,2-diamine]	39.9
CNCCN(C)Cc1c[nH]nc1[C@H]1CC[C@]2(CCCCO2)CC1 [compound 127, methyl([2-[methyl([3-[(6s,9r)-1-oxaspiro[5.5]undecan-9-yl]-1H-pyrazol-4-yl]methyl)amino]ethyl])amine bistrifluoroacetic acid salt]	23.2

Other lines, results leading:

IC50 [nM]	SMILES
94	CNCCN(C)Cc1c(C)[nH]nc1[C@H]1CC[C@@]2(CC1)CC(C)(C)CO2 [compound 57]
163	CNCCN(C)Cc1c(C)[nH]nc1[C@H]1CC[C@]2(CC1)CC(C)(C)CO2 [compound 58]
18.3	CNCCN(C)Cc1scnc1[C@H]1CC[C@@]2(CC1)CC(C)(C)CO2 [compound 62]
208	CNCCN(C)Cc1nn(C)nc1[C@H]1CC[C@@]2(CC1)CC(C)(C)CO2 [compound 64]
51.1	CNCCN(C)Cc1nn[nH]c1[C@H]1CC[C@@]2(CC1)CC(C)(C)CO2 [compound 67]
180	CNCCN(C)Cc1nc(C)sc1[C@H]1CC[C@@]2(CC1)CC(C)(C)CO2 [compound 77]
98.4	CNCCN(C)Cc1sc(C)nc1[C@H]1CC[C@@]2(CC1)CC(C)(C)CO2 [compound 78]
123	CNCCN(C)Cc1nn(C)cc1[C@H]1CC[C@@]2(CC1)CC(C)(C)CO2 [compound 81]
62.7	CNCCN(C)Cc1ncsc1[C@H]1CC[C@@]2(CC1)CC(C)(C)CO2 [compound 83]
89.3	CNCCN(C)Cc1scnc1[C@H]1CC[C@]2(CC1)CC(C)(C)CO2 [compound 84]
444	CNCCN(C)Cc1nn(C)nc1C1CCC2(CC1)CC(C)(C)CO2 (stereo not drawn) [compound 86]
428	CNCCN(C)Cc1nn[nH]c1[C@H]1CC[C@]2(CC1)CC(C)(C)CO2 [compound 89]
317	CNCCN(C)Cc1nc(C)sc1[C@H]1CC[C@]2(CC1)CC(C)(C)CO2 [compound 99]
389	CNCCN(C)Cc1sc(C)nc1[C@H]1CC[C@]2(CC1)CC(C)(C)CO2 [compound 100]
405	CNCCN(C)Cc1nn(C)cc1[C@H]1CC[C@]2(CC1)CC(C)(C)CO2 [compound 103]
2080	CNCCN(C)Cc1c(C)noc1[C@H]1CC[C@]2(CC1)CC(C)(C)CO2 [compound 114]
1310	CNCCN(C)Cc1nocc1[C@H]1CC[C@@]2(CC1)CC(C)(C)CO2 [compound 117]
3530	CNCCN(C)Cc1nocc1[C@H]1CC[C@]2(CC1)CC(C)(C)CO2 [compound 118]
